Patent US20250339385A1, “TOPICAL FORMULATION OF DIMETHYLCURCUMIN” (ANNJI PHARMACEUTICAL CO., LTD., priority 2021, published 2025)

Assay: Solubility of API (Formula I) in aqueous system / solvents
Type: physicochemical
Experimental: When the API of Formula I is in the aqueous system, it forms crystals and precipitates out of solution. To investigate a compatible matrix that allows greater Formula I solubility, various systems containing Formula I were stored at room temperature for 24 hours and were examined under a polarized light microscope to observe the presence or absence of Formula I crystal precipitation.

Substance: dimethylcurcumin [Formula I]
- solubility of API in aqueous phase (aqueous system) (aqueous system): practically insoluble
- solubility of API in diethylene glycol monoethyl ether (diethylene glycol monoethyl ether): good solubility
